The nature of this data set: Gravimetric vapour sorption (GVS) analysis, moisture sorption at 25° C. Particulars: stepping mode in steps of 5% RH, classification according to Ph. Eur. Type of data set: physicochemical. The procedure: Gravimetric Vapour Sorption (GVS) Analysis
Measurements were performed on an IGASORP Model HAS-036-080 moisture sorption instrument (Hiden Isochema, Warrington, UK) operated in stepping mode at 25° C. The sample was allowed to equilibrate at the starting relative humidity (RH) before starting a pre-defined humidity program in steps of 5% ARH and with a maximal equilibration time of 24 hours per step. About 20 to 30 mg of each sample was used.

In the case of `N#Cc1ccc(Cn2ccc(NC(=O)Cc3ccc(C4(C(F)(F)F)CC4)cc3)n2)nc1` [COMPOUND in crystalline form 1, N-[1-(5-cyano-pyridin-2-ylmethyl)-1H-pyrazol-3-yl]-2-[4-(1-trifluoromethyl-cyclopropyl)-phenyl]-acetamide], the “Moisture sorption at 25° C. (GVS), hygroscopicity according to Ph. Eur.” value is reported as “not hygroscopic according to Ph. Eur”.

The values above are taken from patent US20210300894A1, “CRYSTALLINE FORM OF N-[1-(5-CYANO-PYRIDIN-2-YLMETHYL)-1 H-PYRAZOL-3-YL]-2-[4-(1-TRIFLUO-ROMETHYL-CYCLOPROPYL)-PHENYL]-ACETAMIDE” (IDORSIA PHARMACEUTICALS LTD, priority 2017, published 2021).
